# Patent publication US20120082736A1, “Small-molecule TNF modulator to reduce the side effects of chemotherapy and radiotherapy” (GeneBlue Corporation, priority 2010, published 2012)
# Entries after “also recorded” stand apart in the source; their conditions may differ.
# Key:
# TNF-α [1] = assay: Liver TNF-α levels after liver irradiation (ELISA); assay type: in vivo, mice
# Experimental: Mice were treated individually with 0.3 mL each of UTL-5g preparations i.p. 1 hr prior to liver irradiation at 15 Gy. Liver TNF-α levels were analyzed by standard ELISA methodology.
# (§1) Based on the preliminary studies, UTL-5g was selected for dose-dependent radioprotective studies. In this study, animals were treated with increasing doses of UTL-5g (from 0 to 60 mg/kg) one hr prior to liver irradiation (15 Gy). Two hr after irradiation, animals were sacrificed and serum AST/ALT enzyme activities and liver TNF-α levels were determined. […] For animals pre-treated with UTL-5g at 30 mg/kg, AST/ALT activity levels were lowered from 135/29 to 89/22 Unit/L, and those pre-treated with UTL-5g at 60 mg/kg, AST/ALT levels were reduced from 135/29 to 74/19 Unit/L, respectively.
# mice = conditions: cited from earlier work
# [2] = system: C57BL/6 mice, liver irradiation; assay: Liver irradiation: serum AST and ALT activities (Examples 5-7); assay type: in vivo
# Experimental: FIG. 8. Effect of UTL compounds on AST and ALT with and without radiation C57BL/6 male mice were treated with UTL-5b, -5d, and -5g each in 0.3 mL vehicle containing DMSO/(Cremophor:propylene glycol 4:6 v/v)/saline, 5/5/90 v/v by i.p. injection (30 mg/kg) 1 hr prior to liver irradiation with 15 Gy. Serum was obtained at 2 hr after irradiation and assayed for AST and ALT activities. Data are means±standard deviation (S.D.) * indicates p<0.05, n=4.
# Mice were treated with various doses of UTL-5g (3.75, 7.5, 15, 30, and 60 mg/kg, i.p.) 1 hr prior to liver radiation with 15 Gy. Serum was obtained at 2 hr after irradiation and assayed for AST (4a) and ALT activities (4b).
# FIG. 11. Radiation dose escalation and radioprotection by UTL-5 g Mice were pre-treated with UTL-5g (60mg/kg, i.p.) at 1 hr prior to radiation dose escalation (0, 5, 15, and 25 Gy). Serum was harvested at 2 hr after injections and was subjected to AST/ALT measurements as described in Methods. Results were compared to control mice received control vehicle. Data are means±standard deviation (* p<0.05, 2-tailed paired t-Test comparing treated and untreated groups, n=4).
# In a preliminary study, three UTL compounds (5b, 5d and 5g) were examined for their radioprotective effect in C57BL/6 mice. One hr prior to liver irradiation (15 Gy), animals were treated with the test compounds by i.p. injection (30 mg/kg). Two hr later, the animals were sacrificed and serum AST and ALT enzyme activities were determined.
# During the preliminary study, it was found unexpectedly that the vehicle used, DMSO/(Cremophor:propylene glycol […])/saline 5:5:90 v/v was associated with some liver toxicity as indicated by the moderate increase of serum AST and ALT activities in animals treated with vehicle alone.
# as §1
# Next, we investigated the radioprotective effect of UTL-5g with increased irradiation doses. In this study, animals were pre-treated with UTL-5g at 60 mg/kg and randomly divided into 4 groups. One hr later, they were subjected to liver irradiation at 0, 5, 15 and 25 Gy. Consistent with the previous study, pretreatment with UTL-5 g at 60 mg/kg was radioprotective against 15 Gy as evidenced by the reduction of serum AST activity (103.0 vs. 159.8 Unit/L in UTL-5g and in control vehicle groups, respectively) and ALT activity (17.8 vs. 32.3 Unit/L in UTL-5g and in control vehicle groups respectively) (FIG. 11).
# TNF-α [3] = assay: TNF-α levels in plasma of cisplatin-treated mice (commercial assay kit, eBioscience); assay type: in vivo; conditions: UTL-5g 15, 30, 60 mg/kg ip 30 min before cisplatin 2.5 mg/kg, daily ×5; pooled plasma
# Experimental: FIG. 5. Effect of UTL-5g on TNF-α levels in plasma for mice treated with cisplatin. Gp 1, medium control (saline) only; Gp 2, saline followed by cisplatin (2.5 mg/kg) 30 min later; Gp 3, UTL-5g (15 mg/kg) followed by cisplatin 30 min later; Gp 4, UTL-5g (30 mg/kg) followed by cisplatin 30 min later; Gp 5, UTL-5g (60 mg/kg) followed by cisplatin 30 min later. Y axis represents the relative levels of TNF-α assuming 0% for Gp 1 (Control). Level of TNF-α on the figure is based on the average of 2 readings. […]
# Using the samples from the same animal study, TNF-α levels in plasma were analyzed. […]
smiles,measurement,setting,value
Cc1cc(C(=O)Nc2ccc(Cl)cc2Cl)no1 [UTL-5g],"liver TNF-α levels, reduction",TNF-α [1]; UTL-5g 30 mg/kg i.p. 1 hr prior to liver irradiation 15 Gy,20%
same,"liver TNF-α levels, reduction",TNF-α [1]; UTL-5g 60 mg/kg i.p. 1 hr prior to liver irradiation 15 Gy,29%
same,LD50 (acute toxicity),mice,> 200 mg/kg
same,serum AST and ALT levels induced by irradiation,"[2]; 30 mg/kg i.p. 1 hr prior to liver irradiation 15 Gy, serum 2 hr after, C57BL/6 mice, preliminary study",the most effective in lowering both AST and ALT enzyme activities
same,"serum AST/ALT activities, dose dependence","[2]; UTL-5g 0 to 60 mg/kg i.p. 1 hr before liver irradiation 15 Gy, serum 2 hr after",significantly reduced serum AST/ALT activities in a drug dose-dependent manner
same,serum ALT activity,"[2]; UTL-5g 30 mg/kg 1 hr before 15 Gy, irradiated vehicle 29 (Example 6)",22 Unit/L
same,serum AST activity,"[2]; UTL-5g 30 mg/kg 1 hr before 15 Gy, irradiated vehicle 135 (Example 6)",89 Unit/L
same,AST and ALT levels,[2]; UTL-5g 60 mg/kg 1 hr before 5 Gy,slightly but not significantly changed
same,serum ALT activity,"[2]; UTL-5g 60 mg/kg 1 hr before 15 Gy, control vehicle 32.3 (Example 7)",17.8 Unit/L
same,serum AST activity,"[2]; UTL-5g 60 mg/kg 1 hr before 15 Gy, control vehicle 159.8 (Example 7)",103.0 Unit/L
same,serum ALT activity,"[2]; UTL-5g 60 mg/kg 1 hr before 15 Gy, irradiated vehicle 29 (Example 6)",19 Unit/L
same,serum AST activity,"[2]; UTL-5g 60 mg/kg 1 hr before 15 Gy, irradiated vehicle 135 (Example 6)",74 Unit/L
same,radioprotection (AST/ALT),[2]; UTL-5g 60 mg/kg 1 hr before 25 Gy,only moderate protection
same,AST and ALT enzyme activities without irradiation,"[2]; UTL-5g 60 mg/kg alone, animals without irradiation",slightly increased
same,"TNF-α in plasma, effect of pretreatment",TNF-α [3],lowered elevated TNF-α in plasma in a dose-dependent manner; also recorded: lowered the elevated levels of blood TNF-α induced by cisplatin in a dose dependent manner
